Values quoted from earlier work as cited in patent US12419890B2, “Administration of sumo-activating enzyme inhibitor and checkpoint inhibitors” (Takeda Pharmaceutical Company Limited, priority 2019, dated 2025).
Where two headings read alike, the source gives them in different places.

Columns and labels:
metastatic CRC = conditions: stated jointly for both drugs; cited from earlier work
[1] = tested on: recurrent or metastatic cervical cancer; conditions: cited from earlier work
MSI-H CRC = MSI-H CRC patients that progressed to fluoropyrimidine, oxaliplatin, and irinotecan containing regimens; cited from earlier work
advanced NSCLC = conditions: cited from earlier work
[2] = tested on: advanced cervical cancer, PD-L1 CPS>=1; conditions: cited from earlier work
[3] = 200 mg IV every three weeks, 77 patients

CNC(=O)c1cc(Oc2ccc(NC(=O)Nc3ccc(Cl)c(C(F)(F)F)c3)c(F)c2)ccn1 [regorafenib]
median OS (metastatic CRC): 7 months | median PFS (metastatic CRC): 2 months

bevacizumab
HR for PFS ([1]; bevacizumab added to standard first line chemotherapy vs chemotherapy alone, 95% CI 0.54-0.82): 0.67 | HR for OS ([1]; bevacizumab added to standard first line chemotherapy vs chemotherapy alone, 95% CI 0.54-0.95): 0.71 | median PFS ([1]; bevacizumab added to standard first line chemotherapy, vs 5.9 months chemotherapy alone): 8.2 months | median OS ([1]; bevacizumab added to standard first line chemotherapy, vs 13.3 months chemotherapy alone): 17.0 months

nivolumab
ORR (MSI-H CRC): 28% | responders whose DOR lasted more than six months (MSI-H CRC): 67%

pembrolizumab
5-year OS rate (advanced NSCLC; previously treated patients, PD-L1 expression 1 to 49%): 12.6% | 5-year OS rate (advanced NSCLC; previously treated patients, PD-L1 expression <1%): 3.5% | 5-year OS rate (advanced NSCLC; previously treated patients, PD-L1 expression >=50%): 25% | 5-year OS rate (advanced NSCLC; treatment-naive patients with PD-L1 expression >=50%): 29.6% | 5-year OS rate (advanced NSCLC; treatment-naive patients, PD-L1 <50%): 15.7% | complete responses (CRs) [2, 3]: 2.6% | partial responses (PRs) [2, 3]: 11.7% | overall response rate (ORR) ([2]; 200 mg IV every three weeks, 77 patients, median follow-up 11.7 months, 95% CI 7.4, 24.1): 14.3% | estimated median duration of response (DOR) ([2]; 11 patients with a response by independent review): not reached | responders with a DOR of greater than or equal to 6 months ([2]; 11 patients with a response): 91% | ORR (MSI-H CRC): 36% | responders whose DOR lasted more than six months (MSI-H CRC): 78%

trifluridine-tipiracil
median OS (metastatic CRC): 7 months | median PFS (metastatic CRC): 2 months
